According to paper PMC7011974, “Benzimidazole derivatives endowed with potent antileishmanial activity” (Journal of Enzyme Inhibition and Medicinal Chemistry, 2017):
Read-outs that look alike come from different tables or passages of the source.

Columns and labels:
[1] = system: human microvascular endothelial cell line (HMEC-1); test: Cytotoxicity on HMEC-1 cells (MTT); format: cell-based; conditions: for IC50: cytotoxicity, HMEC-1 cells, MTT; for SI L. infantum (IC50 HMEC-1/IC50 L. infantum) / SI L. tropica (IC50 HMEC-1/IC50 L. tropica): selectivity index
L. tropica promastigotes = test: Antileishmanial activity on L. tropica promastigotes (MTT); format: cell-based, Leishmania tropica; conditions: for IC50: 72 h, read-out: IC50 (µM) L. tropica
[2] = system: L. infantum promastigotes; test: Antileishmanial activity on L. infantum promastigotes (MTT); format: cell-based, Leishmania infantum; conditions: for IC50: Leishmania infantum, 72 h, read-out: IC50 (µM) L. infantum
[3] = Leishmania tropica, promastigotes, MTT, starred values mean of two experiments
[4] = fold potency versus miltefosine
[5] = percent of amphotericin B potency, calculated for each experiment
[6] = promastigotes of L. tropica and/or L. infantum
[7] = promastigotes, MTT, starred values mean of two experiments

SMILES | melting point | IC50 (L. tropica promastigotes; [3]) | IC50 amph. B ×100/IC50 compd., L. tropica (L. tropica promastigotes; [5]) | IC50 ([2]; promastigotes, MTT) | IC50 amph. B ×100/IC50 compd., L. infantum [2, 5] | IC50 ([1]; Homo sapiens) | SI L. tropica (IC50 HMEC-1/IC50 L. tropica) [1] | Ratio IC50 miltef./IC50 compd., L. tropica (L. tropica promastigotes; [4]) | Ratio IC50 miltef./IC50 compd., L. infantum [2, 4] | Antileishmanial activity in words (L. tropica promastigotes; [6]) | further results
CCCCCCCCCCCCCCCc1n(Cc2ccccc2)c2ccccc2[n+]1Cc1ccccc1.[Cl-] [Compound 15, 1,3-Dibenzyl-2-pentadecyl-1 H-benzimidazol-3-ium chloride] | 214.9 to 216.3 °C | 1.61 ± 0.15 µM | 5.1 | 3.26 ± 0.8 µM | 2.9 | 0.94 ± 0.17 µM | 0.60 | 26.9 | 9.6 | – | SI L. infantum (IC50 HMEC-1/IC50 L. infantum) [1]: 0.29
CCCCCCCCCCCc1nc2ccccc2[nH]1 [Compound 1, 2-Undecyl-1 H-benzimidazole] | 108.1 to 109.3 °C | > 16.2 µM | – | – | – | 51 ± 7.5 µM | – | – | – | inactive | –
CCCCCCCCCCCCCCCc1n(C)c2ccc([N+](=O)[O-])cc2[n+]1C.[I-] [Compound 10, 1,3-Dimethyl-5-nitro-2-pentadecyl-1 H-benzimidazol-3-ium iodide] | 154 to 156 °C | 1.4 ± 0.58 µM | 7.35 | 0.96 ± 0.17 µM | 12.3 | 2.11 ± 0.45 µM | 1.51 | 30.9 | 32.6 | – | SI L. infantum (IC50 HMEC-1/IC50 L. infantum) [1]: 2.20
CCCCCCCCCCCCCCCc1n(C[c-]2cccc2)c2ccccc2[n+]1C.[Fe+2].[I-].c1cc[cH-]c1 [Compound 17, 1-(Ferrocenylmethyl)-3-methyl-2-pentadecyl-1 H-benzimidazol-3-ium iodide] | – | – | 3.34 | – | – | – | 0.35 | 12.2 | – | – | IC50 [1]: 1.26 ± 0.24 µM; IC50 (L. tropica promastigotes; [7]): 3.56 ± 0.84 µM
COc1ccc(Cc2nc3cc(C(C)=O)ccc3n2C[C@@H]2CCCN3CCCC[C@H]23)cc1 [Compound 31] | – | – | – | – | – | – | – | – | – | – | IC50 amph. B ×100/IC50 compd., L. tropica (L. tropica promastigotes): 0.74; Ratio IC50 miltef./IC50 compd., L. tropica (L. tropica promastigotes): 1.8; IC50 (L. tropica promastigotes; Leishmania tropica): 23.9 ± 7.78 µM; IC50 amph. B ×100/IC50 compd., L. infantum [2]: 0.73; Ratio IC50 miltef./IC50 compd., L. infantum [2]: 1.1; IC50 [2]: 28.5 ± 4.47 µM
CCCCCCCCCCCc1nc2ccccc2n1C [Compound 2, 1-Methyl-2-undecyl-1H-benzimidazole] | 40.8 to 43.4 °C | – | – | – | – | – | – | – | – | – | –
CCN(CC)CCCn1c(Cc2ccc(OC)cc2)nc2cc(C(C)=O)ccc21 [Compound 25] | – | – | – | – | – | – | – | – | – | – | Antileishmanial activity in words (L. tropica promastigotes): inactive; IC50 (L. tropica promastigotes; Leishmania tropica): > 51 µM; IC50 [2]: > 51 µM
CCCCCCCCCCCCCCCc1n(C)c2ccc(C(F)(F)F)cc2[n+]1C.[I-] [Compound 9, 1,3-Dimethyl-2-pentadecyl-5-trifluoromethyl-1 H-benzimidazol-3-ium iodide] | 116 to 118 °C | 0.87 ± 0.16 µM | 11.9 | 1.32 ± 0.3 µM | 8.9 | 1.86 ± 0.34 µM | 2.14 | 49.7 | 23.7 | – | SI L. infantum (IC50 HMEC-1/IC50 L. infantum) [1]: 1.41
CCCCCCCCCCCCCCCc1nc2ccccc2[nH]1 [Compound 6, 2-Pentadecyl-1 H-benzimidazole] | 88.8 to 94.2 °C | 5.05 ± 0.01 µM | 1.6 | 10.1 ± 4.9 µM | 0.93 | > 37 µM | – | 8.6 | 3.1 | – | –
CCCCCCCCCCCCCCCc1nc2ccccc2n1C [Compound 7, 1-Methyl-2-pentadecyl-1H-benzimidazole] | 64.2 to 65.6 °C | > 58 µM | – | > 58 µM | – | – | – | – | – | inactive | –
CCCC(CCC)c1nc2ccccc2[nH]1 [Compound 18, 2-(Heptan-4-yl)-1 H-benzimidazole] | 224.7 to 225.8 °C | 11.1 ± 2.73 µM | 1.07 | > 39.6 µM | – | 65.1 ± 12.2 µM | 5.87 | 3.9 | – | – | –
CCCCCCCCCCCCCCCc1nc2ccccc2n1C[c-]1cccc1.[Fe+2].c1cc[cH-]c1 [Compound 16, 1-(Ferrocenylmethyl)-2-pentadecyl-1 H-benzimidazole] | – | – | – | – | – | – | – | – | – | inactive | IC50 [1]: > 35 µM; IC50 (L. tropica promastigotes; [7]): > 35 µM
CCCCCCCCCCCCCCCc1nc2ccccc2n1Cc1ccccc1 [Compound 13, 1-Benzyl-2-pentadecyl-1H-benzimidazole] | 60.7 to 61.8 °C | > 11.9 µM | – | > 11.9 µM | – | > 47 µM | – | – | – | inactive | –

More lines, main results first:

melting point | IC50 (L. tropica promastigotes; [3]) | IC50 amph. B ×100/IC50 compd., L. tropica (L. tropica promastigotes; [5]) | IC50 ([2]; promastigotes, MTT) | IC50 amph. B ×100/IC50 compd., L. infantum [2, 5] | SMILES | IC50 ([1]; Homo sapiens) | SI L. tropica (IC50 HMEC-1/IC50 L. tropica) [1] | Ratio IC50 miltef./IC50 compd., L. tropica (L. tropica promastigotes; [4]) | Ratio IC50 miltef./IC50 compd., L. infantum [2, 4] | Antileishmanial activity in words (L. tropica promastigotes; [6]) | further results
223.3 to 225.3 °C | 0.78 µM | 10.5 | 0.61 ± 0.05 µM | 25.6 | CCCCCCCCCCCc1n(Cc2ccccc2)c2ccccc2[n+]1Cc1ccccc1.[Cl-] [Compound 5, 1,3-Dibenzyl-2-undecyl-1H-benzimidazol-3-ium chloride] | 1.38 ± 0.17 µM | 1.77 | 55.5 | 51.3 | – | SI L. infantum (IC50 HMEC-1/IC50 L. infantum) [1]: 2.26
192.2 to 192.9 °C | > 73 µM | – | – | – | CCCC(CCC)c1n(C)c2ccccc2[n+]1C.[I-] [Compound 20, 1,3-Dimethyl-2-(heptan-4-yl)-1 H-benzimidazol-3-ium iodide] | > 73 µM | – | – | – | inactive | –
– | 30 ± 10.3 µM | 0.40 | – | – | CCCC(CCC)c1nc2ccccc2n1C [Compound 19, 2-(Heptan-4-yl)-1-methyl-1 H-benzimidazole] | > 74 µM | >2.43 | 1.4 | – | – | –
– | 23.7 ± 8.54 µM | 0.75 | 28.5 ± 8.66 µM | 0.73 | CC(=O)c1ccc2c(c1)nc(Cc1ccccc1)n2C[C@@H]1CCCN2CCCC[C@H]12 [Compound 29] | – | – | 1.8 | 1.1 | – | –
94 to 98 °C | > 50 µM | – | > 50 µM | – | Cn1c(Cc2ccc(Cl)cc2)[n+](C)c2ccccc21.[I-] [Compound 21, 2-(4-Chlorobenzyl)-1,3-dimethyl-1 H-benzimidazol-3-ium iodide] | – | – | – | – | inactive | –
60 °C | 33.9 ± 12.6 µM | 0.30 | 16.7 ± 7.07 µM | 0.70 | Cn1c(Cc2ccc(Cl)cc2)[n+](C)c2cc(C(F)(F)F)ccc21.[I-] [Compound 22, 2-(4-Chlorobenzyl)-1,3-dimethyl-5-trifluoromethyl-1 H-benzimidazol-3-ium iodide] | – | – | 1.3 | 1.9 | – | –
157.3 to 161.3 °C | 1.68 µM | 4.9 | 0.28 ± 0.07 µM | 55.7 | CCCCCCCCCCCc1n(C)c2ccccc2[n+]1C.[I-] [Compound 3, 1,3-Dimethyl-2-undecyl-1 H-benzimidazol-3-ium iodide] | 2.64 ± 0.49 µM | 1.57 | 25.8 | 111.6 | – | SI L. infantum (IC50 HMEC-1/IC50 L. infantum) [1]: 9.43
165 to 169 °C | > 27 µM | – | > 27 µM | – | C[n+]1c(-c2ccc(Cl)cc2)n(C[C@@H]2CCC[N+]3(C)CCCC[C@H]23)c2ccc(C(F)(F)F)cc21 (stereo partly drawn) [Compound 39, 2-(4-Chlorophenyl)-3-methyl-1-{[5-methylammonio-(1 S,9aR)-octahydroquinolizin-1-yl]-methyl}-5-trifluoromethyl-1 H-benzimidazol-3-ium diiodide] | – | – | – | – | inactive | –
